{"source": "paper PMC2905049", "about": "(Bioorganic & medicinal chemistry, 2010)", "key": {"[1]": {"tested_on": "HIV-1IIIB", "experiment": "Anti-HIV replication assay against wild-type HIV-1IIIB in MT-2 cell line", "assay_type": "cell-based", "settings": "for EC50 (μM): HIV-1IIIB replication in MT-2 cell line; for EC50: Human immunodeficiency virus 1, MT2"}, "[2]": {"tested_on": "RTMDR (multi-RT inhibitor-resistant strain)", "experiment": "Anti-HIV replication assay against RTMDR strain in MT-4 cell line", "assay_type": "cell-based, HIV-1", "settings": "Human immunodeficiency virus 1, MT4, read-out: RTMDR EC50 (μM)"}, "[3]": {"tested_on": "HIV-1NL4-3", "experiment": "Anti-HIV replication assay against HIV-1NL4-3 in MT-4 cell line", "assay_type": "cell-based", "settings": "for EC50: Human immunodeficiency virus 1, MT4, read-out: HIV-1NL4-3 EC50 (μM); for EC50 (μM): HIV-1NL4-3, MT-4 cell line, Table 3 screening, 9 as control"}, "[4]": {"tested_on": "MT-2 cell line", "experiment": "Compound toxicity by XTT in mock-infected MT-2 cells", "assay_type": "cell-based", "settings": "Homo sapiens, MT2"}}, "data": [{"smiles": "CCOc1c(C(C)=O)ccc2c1[C@@H](OC(=O)[C@@]13CC[C@@](C)(C(=O)O1)C3(C)C)[C@@H](OC(=O)[C@@]13CC[C@@](C)(C(=O)O1)C3(C)C)C(C)(C)O2", "note": "[Compound 5]", "values": [{"measurement": "EC50 (μM)", "setting": "[1]; Table 1", "result": "moderate activity"}]}, {"smiles": "Cc1cc(=O)oc2c([C@H](COC(=O)[C@@]34CC[C@@](C)(C(=O)O3)C4(C)C)OC(=O)[C@@]34CC[C@@](C)(C(=O)O3)C4(C)C)c(OC(C)C)ccc12", "note": "[Compound 7, 8-(1R,2-Di-O-(−)-camphanoyloxyethyl)-7-isopropoxy-4-methyl-2H-chromen-2-one]", "values": [{"measurement": "EC50", "setting": "[1]", "result": "> 20", "unit": "µM"}, {"measurement": "EC50", "setting": "[2]", "result": "> 20", "unit": "µM"}, {"measurement": "EC50", "setting": "[3]", "result": "> 20", "unit": "µM"}]}, {"smiles": "CCc1cc(=O)c2ccc3c(c2o1)[C@@H](OC(=O)[C@@]12CC[C@@](C)(C(=O)O1)C2(C)C)[C@@H](OC(=O)[C@@]12CC[C@@](C)(C(=O)O1)C2(C)C)C(C)(C)O3", "note": "[Compound 3, reference compound]", "values": [{"measurement": "HIV-1NL4-3 TI", "setting": "[3]; therapeutic index IC50/EC50, MT-4, Table 2 screening", "result": 116}]}, {"smiles": "Cc1cc(=O)oc2c(CSC(=O)[C@@]34CC[C@@](C)(C(=O)O3)C4(C)C)c(OC(C)C)ccc12", "note": "[Compound 13]", "values": [{"measurement": "EC50 (μM)", "setting": "[3]", "result": "moderate activity"}]}, {"smiles": "Cc1cc(=O)oc2cc(OC(C)(C)[C@@H](COC(=O)[C@@]34CC[C@@](C)(C(=O)O3)C4(C)C)OC(=O)[C@@]34CC[C@@](C)(C(=O)O3)C4(C)C)ccc12", "note": "[Compound 6, 7-(2R,3-Di-O-(−)-camphanoyloxy-1,1-dimethylpropoxy)-4-methyl-2H-chromen-2-one]", "values": [{"measurement": "EC50", "setting": "[1]", "result": "> 20", "unit": "µM"}, {"measurement": "EC50", "setting": "[2]", "result": "> 20", "unit": "µM"}, {"measurement": "EC50", "setting": "[3]", "result": "> 20", "unit": "µM"}]}, {"smiles": "Cc1cn([C@H]2C[C@H](N=[N+]=[N-])[C@@H](CO)O2)c(=O)[nH]c1=O", "note": "[AZT, zidovudine, reference compound]", "values": [{"measurement": "TI", "setting": "[1]; therapeutic index IC50/EC50, HIV-1IIIB, MT-2, Table 1", "result": 42700}, {"measurement": "IC50", "setting": "[4]", "result": 1870, "unit": "µM"}]}, {"smiles": "Cc1cc(=O)oc2c([C@H](C)OC(=O)[C@@]34CC[C@@](C)(C(=O)O3)C4(C)C)c(OC(C)C)ccc12", "note": "[Compound 8]", "values": [{"measurement": "EC50 (μM)", "setting": "[1]; Table 1", "result": "lost anti-HIV activity completely"}, {"measurement": "EC50", "setting": "[1]", "result": "> 20", "unit": "µM"}, {"measurement": "EC50", "setting": "[2]", "result": "> 20", "unit": "µM"}, {"measurement": "EC50", "setting": "[3]", "result": "> 20", "unit": "µM"}]}, {"smiles": "CC(=O)c1ccc2c(c1C)[C@@H](OC(=O)[C@@]13CC[C@@](C)(C(=O)O1)C3(C)C)[C@@H](OC(=O)[C@@]13CC[C@@](C)(C(=O)O1)C3(C)C)C(C)(C)O2", "note": "[Compound 4, 3R,4R-Dicamphanoyloxy-2,2,5-trimethyl-6-acetyl-2H-chroman]", "values": [{"measurement": "EC50 (μM)", "setting": "[1]; Table 1", "result": "did not show anti-HIV activity"}, {"measurement": "EC50", "setting": "[1]", "result": "> 20", "unit": "µM"}]}, {"smiles": "COc1ccc(N(Cc2c(OC(C)C)ccc3c(C)cc(=O)oc23)C(=O)[C@@]23CC[C@@](C)(C(=O)O2)C3(C)C)cc1", "note": "[Compound 16, 8-[(N-4-Methoxyphenyl-N-(−)-camphanoyl)aminomethyl]-7-isopropoxy-4-methyl-2H-chromen-2-one]", "values": [{"measurement": "EC50 (μM)", "setting": "[3]", "result": "moderate activity"}]}]}
